One assay addresses Mu-type opioid receptor (Homo sapiens, UniProt P35372). In words: biochemical. Format: functional.
A further assay concerns the target D(3) dopamine receptor (Homo sapiens, UniProt P35462).
Assay [1] has as its target Kappa-type opioid receptor (Homo sapiens, UniProt P41145).
In assay [2] the target is Beta-2 adrenergic receptor (Homo sapiens, UniProt P07550).
The target of assay [3] is Sodium-dependent serotonin transporter (Homo sapiens, UniProt P31645).
Assay [4] deals with T1, Progesterone receptor (Homo sapiens, UniProt P06401).
T1 sequence (P06401 whole entry): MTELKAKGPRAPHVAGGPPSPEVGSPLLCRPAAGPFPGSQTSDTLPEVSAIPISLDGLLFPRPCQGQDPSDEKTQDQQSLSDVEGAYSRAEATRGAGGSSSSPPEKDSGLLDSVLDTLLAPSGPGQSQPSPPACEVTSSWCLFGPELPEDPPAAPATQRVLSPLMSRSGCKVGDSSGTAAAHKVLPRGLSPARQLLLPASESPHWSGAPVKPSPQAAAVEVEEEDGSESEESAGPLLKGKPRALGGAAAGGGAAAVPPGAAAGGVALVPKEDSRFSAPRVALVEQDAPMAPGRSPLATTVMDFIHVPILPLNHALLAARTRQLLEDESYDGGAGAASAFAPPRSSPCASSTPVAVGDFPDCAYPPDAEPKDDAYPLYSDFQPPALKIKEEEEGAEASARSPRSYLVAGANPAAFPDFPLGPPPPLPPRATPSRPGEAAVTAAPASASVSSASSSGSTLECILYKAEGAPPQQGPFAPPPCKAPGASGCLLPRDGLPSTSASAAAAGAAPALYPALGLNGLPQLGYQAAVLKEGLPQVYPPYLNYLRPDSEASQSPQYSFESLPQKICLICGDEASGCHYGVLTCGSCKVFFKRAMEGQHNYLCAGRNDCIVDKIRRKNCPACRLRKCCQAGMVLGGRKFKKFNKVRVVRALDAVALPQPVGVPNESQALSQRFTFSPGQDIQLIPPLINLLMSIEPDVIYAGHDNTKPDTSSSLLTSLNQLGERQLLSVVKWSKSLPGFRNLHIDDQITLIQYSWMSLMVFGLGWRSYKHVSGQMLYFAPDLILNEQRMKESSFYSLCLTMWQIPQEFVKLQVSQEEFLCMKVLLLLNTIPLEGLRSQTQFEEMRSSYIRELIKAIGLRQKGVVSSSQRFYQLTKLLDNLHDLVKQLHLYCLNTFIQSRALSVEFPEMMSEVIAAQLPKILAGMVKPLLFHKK
Format: functional.

A further assay concerns the target T2, Endothelin-1 receptor (Homo sapiens, UniProt P25101).
T2 sequence (P25101 whole entry): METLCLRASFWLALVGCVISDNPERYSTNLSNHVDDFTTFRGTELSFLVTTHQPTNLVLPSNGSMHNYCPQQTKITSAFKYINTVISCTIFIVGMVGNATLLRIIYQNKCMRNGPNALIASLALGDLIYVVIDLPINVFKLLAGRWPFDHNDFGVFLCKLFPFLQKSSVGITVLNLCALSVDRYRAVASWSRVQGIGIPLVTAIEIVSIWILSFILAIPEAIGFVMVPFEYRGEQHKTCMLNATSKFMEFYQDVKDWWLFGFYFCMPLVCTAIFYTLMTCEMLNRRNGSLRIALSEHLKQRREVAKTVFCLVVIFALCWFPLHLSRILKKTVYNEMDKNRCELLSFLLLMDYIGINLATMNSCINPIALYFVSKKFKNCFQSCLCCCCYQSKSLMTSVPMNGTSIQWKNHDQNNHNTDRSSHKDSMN

The target of assay [5] is T3, Alpha-2B adrenergic receptor (Homo sapiens, UniProt P18089).
T3 sequence (P18089 whole entry): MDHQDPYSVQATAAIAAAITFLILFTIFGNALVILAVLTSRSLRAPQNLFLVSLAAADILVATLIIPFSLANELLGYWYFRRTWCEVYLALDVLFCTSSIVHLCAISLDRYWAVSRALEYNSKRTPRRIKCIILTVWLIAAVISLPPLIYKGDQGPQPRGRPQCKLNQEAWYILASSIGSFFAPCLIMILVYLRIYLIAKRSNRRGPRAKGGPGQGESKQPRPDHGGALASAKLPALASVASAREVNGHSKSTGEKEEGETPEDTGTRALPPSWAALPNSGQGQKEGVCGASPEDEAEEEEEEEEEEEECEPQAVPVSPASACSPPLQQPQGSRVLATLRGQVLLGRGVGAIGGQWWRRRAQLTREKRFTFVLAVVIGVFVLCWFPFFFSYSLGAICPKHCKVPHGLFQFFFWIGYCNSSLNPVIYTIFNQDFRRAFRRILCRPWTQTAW

For a further assay, the target named is Histamine H1 receptor (Homo sapiens, UniProt P35367).
Histamine H1 receptor, sequence (P35367 whole entry): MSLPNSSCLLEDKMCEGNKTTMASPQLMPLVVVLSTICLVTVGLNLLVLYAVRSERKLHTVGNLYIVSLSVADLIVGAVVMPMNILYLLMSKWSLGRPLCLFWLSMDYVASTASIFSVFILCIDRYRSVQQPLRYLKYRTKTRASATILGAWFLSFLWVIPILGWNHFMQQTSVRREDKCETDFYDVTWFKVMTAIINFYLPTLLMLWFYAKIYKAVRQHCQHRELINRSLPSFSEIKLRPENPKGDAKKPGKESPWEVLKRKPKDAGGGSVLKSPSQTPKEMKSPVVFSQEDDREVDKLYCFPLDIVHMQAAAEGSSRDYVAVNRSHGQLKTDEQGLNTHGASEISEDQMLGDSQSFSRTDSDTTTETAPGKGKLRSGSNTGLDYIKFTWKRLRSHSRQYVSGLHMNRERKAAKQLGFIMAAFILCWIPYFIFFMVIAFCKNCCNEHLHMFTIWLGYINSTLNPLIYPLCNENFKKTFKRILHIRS
For assay [6], the target named is T1, Progesterone receptor. The assay is classed as functional. The source holds these as a separate data set.
For assay [7], the target named is T4, Muscarinic acetylcholine receptor M1 (Homo sapiens, UniProt P11229).
T4 sequence (P11229 whole entry): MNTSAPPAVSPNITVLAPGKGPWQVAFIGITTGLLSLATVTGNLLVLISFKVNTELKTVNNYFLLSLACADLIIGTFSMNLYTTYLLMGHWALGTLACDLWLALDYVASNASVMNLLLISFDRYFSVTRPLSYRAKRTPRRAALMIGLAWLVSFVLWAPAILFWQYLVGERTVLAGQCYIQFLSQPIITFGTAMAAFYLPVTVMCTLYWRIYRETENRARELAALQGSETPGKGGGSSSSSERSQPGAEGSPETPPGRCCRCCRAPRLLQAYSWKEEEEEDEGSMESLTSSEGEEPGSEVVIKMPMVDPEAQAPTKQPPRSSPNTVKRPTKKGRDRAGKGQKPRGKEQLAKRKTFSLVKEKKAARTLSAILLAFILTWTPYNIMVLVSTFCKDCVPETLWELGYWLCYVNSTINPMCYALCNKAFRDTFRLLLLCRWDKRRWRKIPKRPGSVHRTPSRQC
The assay is classed as functional.

Assay [8] addresses Voltage-dependent L-type calcium channel subunit alpha-1C (Rattus norvegicus, UniProt P22002). The assay is classed as functional.

11 compounds from ChEMBL document CHEMBL5291721, “A preclinical secondary pharmacology resource illuminates target-adverse drug reaction associations of marketed drugs” (Nat Commun, 2023) can be followed below.
Also: assay procedure not described here.

D(3) dopamine receptor, sequence (P35462 whole entry): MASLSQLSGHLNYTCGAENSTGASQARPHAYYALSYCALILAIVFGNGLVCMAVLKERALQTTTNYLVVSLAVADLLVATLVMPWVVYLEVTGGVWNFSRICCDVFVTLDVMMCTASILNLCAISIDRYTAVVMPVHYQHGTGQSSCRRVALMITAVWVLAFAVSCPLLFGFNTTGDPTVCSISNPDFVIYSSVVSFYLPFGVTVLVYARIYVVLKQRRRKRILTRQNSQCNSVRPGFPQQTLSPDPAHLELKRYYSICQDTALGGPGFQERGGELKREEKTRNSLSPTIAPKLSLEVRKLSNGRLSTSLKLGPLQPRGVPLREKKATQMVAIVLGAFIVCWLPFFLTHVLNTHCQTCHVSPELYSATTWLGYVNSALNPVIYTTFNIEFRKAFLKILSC
Mu-type opioid receptor, sequence (P35372 whole entry): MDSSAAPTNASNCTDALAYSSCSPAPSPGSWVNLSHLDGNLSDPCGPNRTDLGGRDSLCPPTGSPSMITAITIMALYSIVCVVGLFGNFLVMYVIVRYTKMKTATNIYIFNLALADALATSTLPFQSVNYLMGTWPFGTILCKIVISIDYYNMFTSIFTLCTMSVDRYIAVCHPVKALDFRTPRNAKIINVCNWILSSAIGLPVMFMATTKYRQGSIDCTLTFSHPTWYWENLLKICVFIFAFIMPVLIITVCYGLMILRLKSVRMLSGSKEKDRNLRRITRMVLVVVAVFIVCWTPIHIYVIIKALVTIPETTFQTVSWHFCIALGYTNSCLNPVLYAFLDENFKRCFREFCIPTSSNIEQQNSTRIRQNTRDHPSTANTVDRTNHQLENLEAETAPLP
Kappa-type opioid receptor, sequence (P41145 whole entry): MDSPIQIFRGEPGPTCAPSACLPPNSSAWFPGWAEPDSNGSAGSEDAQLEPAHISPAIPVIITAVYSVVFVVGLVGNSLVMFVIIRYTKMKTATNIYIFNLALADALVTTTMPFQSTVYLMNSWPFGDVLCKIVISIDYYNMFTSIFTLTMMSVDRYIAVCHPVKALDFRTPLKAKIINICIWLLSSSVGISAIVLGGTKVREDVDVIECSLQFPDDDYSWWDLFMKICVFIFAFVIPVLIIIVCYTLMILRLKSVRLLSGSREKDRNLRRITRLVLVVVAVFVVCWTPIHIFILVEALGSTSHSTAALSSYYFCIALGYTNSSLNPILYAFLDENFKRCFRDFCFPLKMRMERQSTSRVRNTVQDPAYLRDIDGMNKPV
Sodium-dependent serotonin transporter, sequence (P31645 whole entry): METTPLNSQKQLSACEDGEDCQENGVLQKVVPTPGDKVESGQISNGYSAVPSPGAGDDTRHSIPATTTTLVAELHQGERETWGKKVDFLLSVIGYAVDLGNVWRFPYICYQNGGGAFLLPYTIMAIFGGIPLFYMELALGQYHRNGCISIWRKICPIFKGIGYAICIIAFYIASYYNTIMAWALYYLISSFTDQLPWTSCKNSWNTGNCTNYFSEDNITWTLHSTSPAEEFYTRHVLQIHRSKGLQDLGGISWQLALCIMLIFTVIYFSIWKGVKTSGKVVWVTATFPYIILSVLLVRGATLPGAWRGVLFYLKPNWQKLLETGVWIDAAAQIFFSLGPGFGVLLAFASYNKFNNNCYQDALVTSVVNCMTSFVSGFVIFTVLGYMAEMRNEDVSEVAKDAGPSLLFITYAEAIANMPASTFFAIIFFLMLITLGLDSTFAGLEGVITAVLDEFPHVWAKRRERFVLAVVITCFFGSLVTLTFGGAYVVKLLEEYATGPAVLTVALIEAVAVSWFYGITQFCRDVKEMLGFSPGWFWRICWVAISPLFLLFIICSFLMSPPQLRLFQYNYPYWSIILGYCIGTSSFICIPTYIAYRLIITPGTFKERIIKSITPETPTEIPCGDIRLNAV
Beta-2 adrenergic receptor, sequence (P07550 whole entry): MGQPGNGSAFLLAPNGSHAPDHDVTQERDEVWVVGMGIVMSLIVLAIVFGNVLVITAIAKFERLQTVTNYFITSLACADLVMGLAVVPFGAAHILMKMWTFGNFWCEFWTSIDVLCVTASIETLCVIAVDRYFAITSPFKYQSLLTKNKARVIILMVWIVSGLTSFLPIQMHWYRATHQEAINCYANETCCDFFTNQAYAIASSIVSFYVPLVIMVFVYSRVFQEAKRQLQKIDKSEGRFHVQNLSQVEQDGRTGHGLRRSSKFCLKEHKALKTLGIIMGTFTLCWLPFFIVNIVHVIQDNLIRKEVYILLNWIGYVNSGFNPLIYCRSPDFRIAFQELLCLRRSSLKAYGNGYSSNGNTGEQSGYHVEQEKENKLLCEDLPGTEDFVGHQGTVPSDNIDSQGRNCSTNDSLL
Voltage-dependent L-type calcium channel subunit alpha-1C, sequence (P22002 whole entry): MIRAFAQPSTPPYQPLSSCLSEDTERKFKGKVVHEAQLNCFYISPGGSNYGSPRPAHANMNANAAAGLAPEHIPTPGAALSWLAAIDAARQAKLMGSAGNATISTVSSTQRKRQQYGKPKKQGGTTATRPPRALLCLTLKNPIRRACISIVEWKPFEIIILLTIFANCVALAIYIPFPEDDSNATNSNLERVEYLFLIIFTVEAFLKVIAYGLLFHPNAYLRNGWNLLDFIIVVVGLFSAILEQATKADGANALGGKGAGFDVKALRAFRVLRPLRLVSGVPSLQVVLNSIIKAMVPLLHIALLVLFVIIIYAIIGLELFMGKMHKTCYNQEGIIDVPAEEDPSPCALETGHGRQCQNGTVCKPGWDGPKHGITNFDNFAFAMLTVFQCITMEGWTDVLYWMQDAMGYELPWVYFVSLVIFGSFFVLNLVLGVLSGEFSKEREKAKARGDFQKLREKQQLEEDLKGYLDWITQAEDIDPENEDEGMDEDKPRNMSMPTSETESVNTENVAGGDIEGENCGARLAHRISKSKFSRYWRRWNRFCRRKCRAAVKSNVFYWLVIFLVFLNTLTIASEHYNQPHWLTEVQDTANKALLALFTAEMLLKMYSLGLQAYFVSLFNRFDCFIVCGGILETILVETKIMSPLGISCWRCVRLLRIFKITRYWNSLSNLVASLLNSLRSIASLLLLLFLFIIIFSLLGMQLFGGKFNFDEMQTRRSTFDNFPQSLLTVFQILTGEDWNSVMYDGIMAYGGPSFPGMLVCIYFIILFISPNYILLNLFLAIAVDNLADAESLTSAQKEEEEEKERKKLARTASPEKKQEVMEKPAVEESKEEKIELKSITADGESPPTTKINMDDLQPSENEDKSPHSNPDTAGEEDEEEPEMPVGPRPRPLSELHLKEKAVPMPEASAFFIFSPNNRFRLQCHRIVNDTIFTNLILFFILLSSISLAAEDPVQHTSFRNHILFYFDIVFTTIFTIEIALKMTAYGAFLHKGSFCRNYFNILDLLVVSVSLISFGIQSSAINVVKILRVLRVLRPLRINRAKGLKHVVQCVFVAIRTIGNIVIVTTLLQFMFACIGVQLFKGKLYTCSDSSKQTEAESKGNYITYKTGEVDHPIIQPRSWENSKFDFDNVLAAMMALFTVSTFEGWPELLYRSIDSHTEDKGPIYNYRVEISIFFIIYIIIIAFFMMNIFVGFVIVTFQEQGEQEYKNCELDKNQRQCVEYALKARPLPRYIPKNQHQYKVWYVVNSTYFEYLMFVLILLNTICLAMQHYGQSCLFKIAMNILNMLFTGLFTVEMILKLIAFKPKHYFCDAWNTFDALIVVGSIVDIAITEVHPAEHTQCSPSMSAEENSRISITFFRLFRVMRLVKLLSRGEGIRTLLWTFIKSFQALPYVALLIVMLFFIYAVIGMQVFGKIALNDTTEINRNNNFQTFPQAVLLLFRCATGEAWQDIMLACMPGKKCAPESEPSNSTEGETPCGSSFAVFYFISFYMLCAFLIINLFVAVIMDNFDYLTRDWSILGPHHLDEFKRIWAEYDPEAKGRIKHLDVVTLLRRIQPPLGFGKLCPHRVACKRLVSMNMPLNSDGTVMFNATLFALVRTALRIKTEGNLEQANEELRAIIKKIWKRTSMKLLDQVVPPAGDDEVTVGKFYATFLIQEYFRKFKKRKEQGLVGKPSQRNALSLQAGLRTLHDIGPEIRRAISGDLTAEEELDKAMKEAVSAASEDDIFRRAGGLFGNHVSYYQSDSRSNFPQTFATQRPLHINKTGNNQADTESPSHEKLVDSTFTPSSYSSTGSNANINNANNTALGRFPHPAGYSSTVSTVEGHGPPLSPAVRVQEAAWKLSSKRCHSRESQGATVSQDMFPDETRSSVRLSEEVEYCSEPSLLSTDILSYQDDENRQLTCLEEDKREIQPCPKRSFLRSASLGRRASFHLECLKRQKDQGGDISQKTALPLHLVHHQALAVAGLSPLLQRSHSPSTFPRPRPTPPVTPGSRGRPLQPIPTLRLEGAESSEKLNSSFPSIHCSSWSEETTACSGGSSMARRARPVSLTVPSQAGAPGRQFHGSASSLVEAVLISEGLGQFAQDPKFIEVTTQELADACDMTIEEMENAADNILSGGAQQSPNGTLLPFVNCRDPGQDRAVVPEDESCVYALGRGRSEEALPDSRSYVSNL

With `N#Cc1ccccc1-c1cc(-c2ccccn2)cn(-c2ccccc2)c1=O`, the AC50 (at Mu-type opioid receptor; at D(3) dopamine receptor; in assay [1]; in assay [2]; in [3]; at Progesterone receptor [4]) was above 30 µM each time. Also, the AC50 (on Endothelin-1 receptor; in assay [5]; on Histamine H1 receptor; at Progesterone receptor [6]; in assay [7]; in assay [8]) was above 30 µM throughout.
`N=C(N)NCCCCCCC(=O)NC(O)C(=O)NCCCCNCCCN` (stereo not drawn): the AC50 (on Mu-type opioid receptor; at D(3) dopamine receptor; in [1]; in assay [2]; in assay [3]; at Progesterone receptor [4]) was above 30 µM in each case. Also, the half-maximal activity concentration (AC50) (on Endothelin-1 receptor; in [5]; at Histamine H1 receptor; on Progesterone receptor [6]; in assay [7]; in [8]) was above 30 µM in each case.
Turning to `O=C(CCCN1CCC(n2c(O)nc3ccccc32)CC1)c1ccc(F)cc1` [BENPERIDOL], the AC50 (usually the midpoint of the concentration-response curve, whichever way the signal moves) at Mu-type opioid receptor was above 30 µM; on D(3) dopamine receptor, 0.0053 µM; in assay [1], 1.15 µM; in assay [2], 8.6 µM; in assay [3], above 30 µM; at Progesterone receptor [4] it was 29 µM. Also, the AC50 is above 30 µM at Endothelin-1 receptor; 0.85 µM in [5]; 0.73 µM at Histamine H1 receptor; above 30 µM on Progesterone receptor [6]; 13 µM in assay [7]; above 30 µM in assay [8].
In the case of `CCN(CC)C(=O)C1CN2CCc3cc(OC)c(OC)cc3C2CC1OC(C)=O` (stereo not drawn) [BENZQUINAMIDE], the AC50 on Mu-type opioid receptor was above 30 µM; on D(3) dopamine receptor, 14.4 µM; in assay [1] it was above 30 µM; in [2], above 10 µM; in assay [3] it was above 30 µM; on Progesterone receptor [4], above 30 µM. For the same compound, the AC50 at Endothelin-1 receptor is above 30 µM; in assay [5], 1.03 µM; at Histamine H1 receptor it was above 30 µM; on Progesterone receptor [6], above 30 µM; in assay [7], above 30 µM; in assay [8] it was above 10 µM.
On to `CCOC(=O)NNc1ccc(N(CC)CC(C)O)nn1` (stereo not drawn) [CADRALAZINE], for which the AC50 (on Mu-type opioid receptor; on D(3) dopamine receptor; in assay [1]; in assay [2]; in [3]; at Progesterone receptor [4]) was above 30 µM each time. Besides, the AC50 (at Endothelin-1 receptor; in assay [5]; on Histamine H1 receptor; at Progesterone receptor [6]; in [7]; in [8]) was above 30 µM throughout.
Regarding `CCC(C)(Oc1ccc(C2(c3ccc(OC(C)(CC)C(=O)O)cc3)CCCCC2)cc1)C(=O)O` (stereo not drawn) [CLINOFIBRATE], the half-maximal activity concentration (AC50) (on Mu-type opioid receptor; at D(3) dopamine receptor; in [1]; in [2]; in [3]; on Progesterone receptor [4]) was above 30 µM each time. Moreover, the AC50 (on Endothelin-1 receptor; in assay [5]; on Histamine H1 receptor; at Progesterone receptor [6]; in [7]; in assay [8]) was above 30 µM in each case.
On to `CCCCC[C@H](O)/C=C/[C@H]1[C@H](O)CC(=O)[C@@H]1C/C=C\CCCC(=O)O` [DINOPROSTONE], for which the AC50 is above 30 µM at Mu-type opioid receptor; above 30 µM on D(3) dopamine receptor; 22 µM in [1]; above 30 µM in [2]; above 30 µM in [3]; 4.5 µM at Progesterone receptor [4]. Moreover, the AC50 (at Endothelin-1 receptor; in [5]; on Histamine H1 receptor; on Progesterone receptor [6]; in [7]; in assay [8]) was above 30 µM throughout.
Consider `COC(=O)N[C@@H](C)CNc1nccc(-c2cn(C(C)C)nc2-c2cc(Cl)cc(NS(C)(=O)=O)c2F)n1` [ENCORAFENIB], for which the AC50 is above 30 µM on Mu-type opioid receptor; above 30 µM at D(3) dopamine receptor; 13.7 µM in assay [1]; above 30 µM in [2]; above 30 µM in assay [3]; above 30 µM at Progesterone receptor [4]. Moreover, the half-maximal activity concentration (AC50) (in assay [5]; on Histamine H1 receptor; on Progesterone receptor [6]; in [7]; in [8]) was above 30 µM throughout.
In the case of `Nc1nc(F)nc2c1ncn2[C@@H]1O[C@H](COP(=O)(O)O)[C@@H](O)[C@@H]1O` [FLUDARABINE PHOSPHATE], the AC50 (on Mu-type opioid receptor; at D(3) dopamine receptor; in assay [1]; in assay [2]; in assay [3]; at Progesterone receptor [4]) was above 30 µM in each case. Further, the AC50 (in assay [5]; at Histamine H1 receptor; on Progesterone receptor [6]; in assay [7]; in assay [8]) was above 30 µM throughout.
For `CC(=O)O[C@H]1C[C@@H]2CC[C@@H]3[C@H](CC[C@@]4(C)[C@H]3C[C@H]([N+]3(C)CCCCC3)[C@@H]4OC(C)=O)[C@@]2(C)C[C@@H]1[N+]1(C)CCCCC1` [PANCURONIUM], the AC50 is above 30 µM on Mu-type opioid receptor; above 30 µM at D(3) dopamine receptor; above 10 µM in assay [1]; above 10 µM in assay [2]; above 10 µM in [3]; above 10 µM at Progesterone receptor [4]. Further, the AC50 (in assay [5]; on Histamine H1 receptor; on Progesterone receptor [6]; in assay [7]; in [8]) was above 10 µM in each case.
As for `Cc1ccc2c(-c3ccccc3)nc(=O)n(C(C)C)c2c1` [PROQUAZONE], the AC50 (at Mu-type opioid receptor; on D(3) dopamine receptor; in assay [1]; in [2]; in [3]; at Progesterone receptor [4]) was above 30 µM each time. For the same compound, the AC50 (at Endothelin-1 receptor; in assay [5]; on Histamine H1 receptor; on Progesterone receptor [6]; in assay [7]) was above 30 µM in each case.
